The experiment addresses T1, PPARγ (Homo sapiens, UniProt P37231).
T1 construct: expression construct for the full-length human receptor under investigation; expressed in transfected cells; host or cells: human U2-OS cells (ATCC HTB-96), stably transfected
T1 sequence (P37231 1-505): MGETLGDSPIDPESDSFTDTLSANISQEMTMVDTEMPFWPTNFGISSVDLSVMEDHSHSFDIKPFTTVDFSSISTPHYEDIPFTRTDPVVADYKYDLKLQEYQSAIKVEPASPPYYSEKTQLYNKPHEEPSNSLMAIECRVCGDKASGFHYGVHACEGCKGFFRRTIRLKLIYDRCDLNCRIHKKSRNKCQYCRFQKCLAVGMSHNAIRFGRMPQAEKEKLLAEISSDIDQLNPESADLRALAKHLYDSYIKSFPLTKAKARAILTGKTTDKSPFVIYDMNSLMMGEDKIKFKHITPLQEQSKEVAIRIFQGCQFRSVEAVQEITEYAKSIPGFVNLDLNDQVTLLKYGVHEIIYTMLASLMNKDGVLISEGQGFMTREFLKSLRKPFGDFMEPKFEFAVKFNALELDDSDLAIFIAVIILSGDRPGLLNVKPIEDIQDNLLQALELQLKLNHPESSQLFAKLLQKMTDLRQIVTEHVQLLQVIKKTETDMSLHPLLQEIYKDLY
Briefly: PPARγ CALUX reporter gene assay. In kind it is cell-based. Set-up: key: –: no effect observed up to the highest test concentration. Conditions: PC10, 24 h exposure. The source says:
2-methylimidazole 99.0%, zinc(II) nitrate hexahydrate ≥99.0%, para-cymene 99.0%, 1,4-dioxane 99.8% (anhydrous), 4-nitroaniline ≥99.0%, 1-octanol ≥99.0%, diglyme ≥99.0%, DMSO-d6 (99.8% D) and chloroform-d (99.8% D) were purchased from Sigma-Aldrich. Toluene ≥99.0%, hexane ≥99.5%, DCM ≥99.5%, chloroform ≥99.5%, DMSO ≥99.0% were purchased from VWR. N,N-diethyl-4-nitroaniline ≥98.0% was purchased from Alfa Aeser. Cyrene was supplied by Circa group. N-butylpyrrolidinone was supplied by Eastman chemicals. N,N-dimethylformamide 99.9% and N,N-dimethylacetamide 99.9% were purchased from Fischer. The flakes of Ultrason® E3020 P Polyarylethersulfone of 55,000 Da were obtained from INGE.BASF, Germany. The CALUX cell lines have been described previously.[1] They are based on human U2-OS cells (ATCC, HTB-96) stably transfected with an expression construct for the full-length human receptor under investigation, and a reporter construct consisting of multimerized responsive elements for the cognate receptor coupled to a minimal promoter element (TATA) and a luciferase gene. Cells were maintained as described previously,[2] using cell culture media and supplements from Fisher Scientific as described in the experimental procedures section. […]
In vitro reporter gene assays
The automated CALUX assays were carried out similarly as described earlier,[12] with some adaptations. In brief, the assay was performed in CO2 independent medium (Fisher Scientific, […]
supplement (Fisher Scientific, 11574466), 10 U/mL penicillin and 10 µg/mL streptomycin. A cell suspension in assay medium was made of 1 × 10^5cells/mL, and white 384-wells plates were seeded with 30 µl cell suspension/well. After 24 h, exposure medium was prepared. A dilution series in 0.5log unit increments of each test compound (in DMSO) was added to a 96-wells plate containing assay medium (2% v/v). Of this exposure mixture, 30 µl was added to the assay plates containing the CALUX cells, resulting in a final DMSO concentration of 1%. Additionally, DMSO blanks and a full dose response curve of the relevant reference compound were included on each plate. All samples were tested in triplicate. The preparation of the compound dilution series as well as the exposure of the cells were performed on a Hamilton StarLET liquid handling robot coupled to a Cytomat incubator.
Directly after exposure, plates were sealed with non-breathing plate seals (Plate sealer, easy seal transparent; Greiner-Bio-One, 676001). After 24 h the exposure medium was removed using an EL406 washer-dispenser (BioTek) and 10 µl/well triton lysisbuffer was added by the EL406.
Subsequently, the luciferase signal was measured in a luminometer (InfinitePro coupled to a Connect Stacker, both TECAN). In order to be able to detect receptor antagonism, several assays were also performed in antagonistic mode. […]
The luminometer data was analysed as follows; the average of the triplicate wells was determined, and the average blank (DMSO) value was subtracted. […] For antagonist- and cytotoxicity experiments, PC20 values were determined instead, which was defined as the concentration where the test compound causes a 20% decrease in the basal signal, which was […]
curve, the signal induction above background (DMSO) was determined, and the concentration where the compound elicited a 1.5-fold increase above background was used as LEC.
As to `CCCCN(CCCC)C(=O)CCC(=O)N(CCCC)CCCC` [TBSA, N,N,N′,N′‐tetrabutylsuccindiamide], the “LEC PPARγ” value is on record as “–”.

Regarding `CCCCN1CCCC1=O` [NBP, N‐Butylpyrrolidinone, reference compound], the “LEC PPARγ” value is “–”.

In the case of `CN1CCCC1=O` [NMP, N‐methyl‐2‐pyrrolidone, reference compound], the “LEC PPARγ” value is “–”. Regarding `CCCCN(CC)C(=O)CCC(=O)N(CC)CCCC` [EBSA, N,N′‐diethyl‐N,N′‐dibutylsuccindiamide], the “LEC PPARγ” value is “–”. Regarding `CCCCN(C)C(=O)CCC(=O)N(C)CCCC` [MBSA, N,N′‐dimethyl‐N,N′‐dibutylsuccindiamide], the “LEC PPARγ” value is “–”.

These data come from publication PMC7318222, “A Family of Water‐Immiscible, Dipolar Aprotic, Diamide Solvents from Succinic Acid” (Chemsuschem, 2020).
